Experiment [1] can be described thus: Inhibition of membrane fusion between HIV1 JR-FL Env-expressing COS7 cells and MOLT4/CCR5.
A short description of experiment [2]: Inhibition of replication of R5 HIV1 Ba-L in MOLT4/CCR5 cells.

Take `CCCCOCCOc1ccc(-c2ccc3c(c2)C=C(C(=O)Nc2ccc([S+]([O-])Cc4nncn4CCC)cc2)CCCN3CCC)cc1` [(S)-(-)-8-{4-[2-(butoxy)ethoxy]phenyl}-1-propyl-N-(4-{[(4-propyl-4H-1,2,4-triazol-3-yl)methyl]sulfinyl}phenyl)-1,2,3,4-tetrahydro-1-benzazocine-5-carboxamide]: in experiment [1], half-maximal inhibition (IC50) required 0.95 nM.

With `CCCCOCCOc1ccc(-c2ccc3c(c2)C=C(C(=O)Nc2ccc([S+]([O-])Cc4cncn4CCC)cc2)CCCCN3CC(C)C)cc1` [(S)-(-)-9-{4-[2-(butoxy)ethoxy]phenyl}-1-isobutyl-N-(4-{[(1-propyl-1H-imidazol-5-yl)methyl]sulfinyl}phenyl)-2,3,4,5-tetrahydro-1H-1-benzazonine-6-carboxamide], the IC50 stood at 0.48 nM in experiment [1] and 2.1 nM in experiment [2].

On to `CCCCOCCOc1ccc(-c2ccc3c(c2)C=C(C(=O)Nc2ccc([S+]([O-])Cc4cncn4CCC)cc2)CCCN3CCC)cc1` [(S)-(-)-8-{4-[2-(butoxy)ethoxy]phenyl}-1-propyl-N-(4-{[(1-propyl-1H-imidazol-5-yl)methyl]sulfinyl}phenyl)-1,2,3,4-tetrahydro-1-benzazocine-5-carboxamide], for which the IC50 in experiment [1] is 0.24 nM; in experiment [2], 1.4 nM.

For `CCCCOCCOc1ccc(-c2ccc3c(c2)C=C(C(=O)Nc2ccc([S+]([O-])Cc4nncn4CCC)cc2)CCCN3CC(C)C)cc1` (stereo not given), in experiment [1], the IC50 was found to be 0.19 nM. That is a sub-nanomolar value.

Turning to `CCCCOCCOc1ccc(-c2ccc3c(c2)C=C(C(=O)Nc2ccc([S+]([O-])Cc4cncn4CCC)cc2)CCN3CC(C)C)cc1` (stereo not given) [7-(4-(2-butoxyethoxy)phenyl)-1-isobutyl-N-(4-((1-propyl-1H-imidazol-5-yl)methylsulfinyl)phenyl)-2,3-dihydro-1H-benzo[b]azepine-4-carboxamide], the IC50 in experiment [1] was 1 nM; in experiment [2] it was 5.3 nM.

In the case of `CCCCOCCOc1ccc(-c2ccc3c(c2)C=C(C(=O)Nc2ccc([S+]([O-])Cc4cncn4CCC)cc2)CCCN3Cc2cnn(C)c2)cc1` (stereo not given), the IC50 was found to be 0.21 nM in experiment [1] and 2.3 nM in experiment [2].

For orientation: IC50 means the concentration that inhibits the measured activity by half. Lower therefore signals greater potency in that assay.

Source of the values: BindingDB's records for doi:10.1021/jm0509703 (Takeda Pharmaceutical, 2006).
